According to US9951035B2, “Selective matrix metalloproteinase inhibitors” (University of Notre Dame du Lac, priority 2014, dated 2018):
Converted amounts (≈) assume the structure as drawn. “And” between values parts separate entries of the source, which are not always exact repeats. Equal values may be shown once. “Also recorded” adds a separate entry of the source.

Assays:
physchem = conditions: water, thermodynamic from solid
ADAM9 = ADAM9 (Homo sapiens (Human), UniProt Q13443); test: Enzyme inhibition studies, ADAM9; type: biochemical; conditions: at 100 μM
Sequence of ADAM9 (Q13443 206-697): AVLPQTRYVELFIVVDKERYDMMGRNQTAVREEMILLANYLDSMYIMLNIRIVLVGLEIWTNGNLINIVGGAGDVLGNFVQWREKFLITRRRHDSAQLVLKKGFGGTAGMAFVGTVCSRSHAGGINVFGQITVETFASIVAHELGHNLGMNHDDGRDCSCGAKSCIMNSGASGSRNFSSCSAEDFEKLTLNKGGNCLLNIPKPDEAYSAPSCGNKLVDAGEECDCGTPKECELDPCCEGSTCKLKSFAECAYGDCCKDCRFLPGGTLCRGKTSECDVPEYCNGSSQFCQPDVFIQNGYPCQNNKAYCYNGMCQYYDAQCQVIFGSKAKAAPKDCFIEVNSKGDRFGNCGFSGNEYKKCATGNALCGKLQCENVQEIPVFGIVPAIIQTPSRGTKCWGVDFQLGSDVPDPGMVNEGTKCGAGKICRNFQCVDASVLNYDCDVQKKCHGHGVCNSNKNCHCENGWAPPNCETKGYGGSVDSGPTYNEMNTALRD

MMP-8 = MMP-8 (Homo sapiens (Human), UniProt P22894); test: Enzyme inhibition studies, MMP-8 catalytic domain; type: biochemical; conditions: Ki, catalytic domain; linear noncompetitive or linear competitive mechanism as footnoted
Sequence of MMP-8 (P22894 100-262): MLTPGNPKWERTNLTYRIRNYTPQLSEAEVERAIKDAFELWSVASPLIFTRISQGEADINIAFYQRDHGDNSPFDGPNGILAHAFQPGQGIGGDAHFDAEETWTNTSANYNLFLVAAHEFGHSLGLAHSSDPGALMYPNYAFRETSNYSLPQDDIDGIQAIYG

[1] = Stability in buffers of the kinetic assays; type: physicochemical
Description: Human recombinant active MMP-2 and MMP-7, and the catalytic domains of MMP-3 and MMP-14/MT1-MMP were purchased from EMD Chemicals, Inc. (San Diego, Calif., USA); human recombinant catalytic domains of MMP-1, MMP-8, and MMP-9 were purchased from Enzo Life Sciences, Inc. (Farmingdale, N.Y., USA); human recombinant active ADAM9 and ADAM10 were purchased from R&D Systems (Minneapolis, Minn., USA). Fluorogenic substrates MOCAc-Pro-Leu-Gly-Leu-A2pr(Dnp)-Ala-Arg-NH2 (for MMP-2, MMP-7, MMP-9 and MMP-14) and MOCAc-Arg-Pro-Lys-Pro-Val-Glu-Nva-Trp-Arg-Lys(Dnp)-NH2 (for MMP-3) were purchased from Peptides International (Louisville, Ky., USA); Mca-KPLGL-Dpa-AR-NH2 (for MMP-1, MMP-8 and ADAM10) and Mca-PLAQAV-Dpa-RSSSR-NH2 (for ADAM9) were purchased from R&D Systems (Minneapolis, Minn., USA). […] Inhibitor stock solutions (10 mM) were prepared fresh in DMSO before enzyme inhibition assays. We followed the same methodology for enzyme inhibition studies as reported by Page-McCaw et al. (Nat. Rev. Mol. Cell Biol. 2007, 8, 221-233). Enzyme inhibition studies were carried out using a Cary Eclipse fluorescence spectrophotometer (Varian, Walnut Creek, Calif., USA). Compounds 4, 5, 6 and 7 were stable in the buffers that were used in the kinetic assays.

MMP-14 = MMP-14 (Homo sapiens (Human), UniProt P50281); test: Enzyme inhibition studies, MMP-14 catalytic domain; type: biochemical; conditions: at 50 μM
MMP-7 = MMP-7 (Homo sapiens (Human), UniProt P09237); test: Enzyme inhibition studies, MMP-7; type: biochemical
Sequence of MMP-7 (P09237 95-267): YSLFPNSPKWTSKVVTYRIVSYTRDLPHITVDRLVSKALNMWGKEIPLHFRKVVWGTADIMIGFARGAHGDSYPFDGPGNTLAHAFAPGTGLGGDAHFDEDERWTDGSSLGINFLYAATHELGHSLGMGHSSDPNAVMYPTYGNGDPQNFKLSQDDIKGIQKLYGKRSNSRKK

[2] = Pharmacokinetics and brain distribution after single iv dose
Description: (§1) Mice (male CD-1, 6-7 weeks old, ˜30 g body weight, specific pathogen free) were purchased from Charles River Laboratories, Inc. (Wilmington, Mass., USA).
(§2) Samples were analyzed by ultraperformance liquid chromatography (UPLC)/(+)electrospray ionization (ESI)-multiple-reaction monitoring (MRM) with a reversed phase C18 column (Acclaim® RSLC 120 C18, 2.2 μm, 120 Å, 2.1×100 mm, Dionex, Sunnyvale, Calif., USA).
(§3) Quantification of the compounds in plasma and brain was obtained using peak-area ratios of the compounds to the internal standard, and the linear-regression parameters obtained from the calibration curves.

[3] = mouse, in vivo, iv, 5 mg/kg
Description: as §1, §2, §3

in vivo = conditions: male, CD-1, mouse, iv, 5 mg/kg
Description: as §1, §2, §3

MMP-9 [4] = biological target: T1, MMP-9 (Homo sapiens (Human), UniProt P14780); test: Enzyme inhibition studies, MMP-9 catalytic domain; type: biochemical; conditions: at 50 μM
T1 sequence (P14780 107-444): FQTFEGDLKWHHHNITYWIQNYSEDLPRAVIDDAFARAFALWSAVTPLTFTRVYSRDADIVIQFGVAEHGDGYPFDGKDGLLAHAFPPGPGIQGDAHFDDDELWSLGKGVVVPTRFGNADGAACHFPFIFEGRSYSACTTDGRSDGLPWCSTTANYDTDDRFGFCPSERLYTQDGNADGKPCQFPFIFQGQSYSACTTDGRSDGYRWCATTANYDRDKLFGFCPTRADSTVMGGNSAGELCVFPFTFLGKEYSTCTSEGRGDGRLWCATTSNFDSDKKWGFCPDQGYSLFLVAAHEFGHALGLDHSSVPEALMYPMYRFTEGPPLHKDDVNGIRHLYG

ADAM10 = ADAM10 (Homo sapiens (Human), UniProt O14672); test: Enzyme inhibition studies, ADAM10; type: biochemical; conditions: at 100 μM
Sequence of ADAM10 (O14672 214-672): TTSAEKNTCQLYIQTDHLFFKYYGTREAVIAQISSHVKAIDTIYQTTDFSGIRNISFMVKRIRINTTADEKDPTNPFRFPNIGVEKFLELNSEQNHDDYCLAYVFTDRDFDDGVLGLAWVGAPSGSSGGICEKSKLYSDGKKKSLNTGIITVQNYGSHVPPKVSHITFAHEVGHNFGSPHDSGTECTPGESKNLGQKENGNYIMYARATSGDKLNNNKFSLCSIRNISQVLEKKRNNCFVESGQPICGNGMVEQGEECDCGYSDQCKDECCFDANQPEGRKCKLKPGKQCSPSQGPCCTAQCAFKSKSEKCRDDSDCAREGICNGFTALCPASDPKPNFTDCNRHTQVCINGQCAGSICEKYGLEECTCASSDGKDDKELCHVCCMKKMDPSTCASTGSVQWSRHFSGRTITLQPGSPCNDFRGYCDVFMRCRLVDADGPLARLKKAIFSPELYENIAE

MMP-1 = MMP-1 (Homo sapiens (Human), UniProt P03956); test: Enzyme inhibition studies, MMP-1 catalytic domain; type: biochemical
Sequence of MMP-1 (P03956 98-276): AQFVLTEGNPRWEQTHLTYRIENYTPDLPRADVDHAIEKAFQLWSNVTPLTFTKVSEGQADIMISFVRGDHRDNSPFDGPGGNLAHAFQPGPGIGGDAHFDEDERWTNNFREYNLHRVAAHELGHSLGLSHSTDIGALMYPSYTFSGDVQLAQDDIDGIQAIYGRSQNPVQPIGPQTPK

MMP-3 = MMP-3 (Homo sapiens (Human), UniProt P08254); test: Enzyme inhibition studies, MMP-3 catalytic domain; type: biochemical; conditions: at 100 μM
Sequence of MMP-3 (P08254 100-272): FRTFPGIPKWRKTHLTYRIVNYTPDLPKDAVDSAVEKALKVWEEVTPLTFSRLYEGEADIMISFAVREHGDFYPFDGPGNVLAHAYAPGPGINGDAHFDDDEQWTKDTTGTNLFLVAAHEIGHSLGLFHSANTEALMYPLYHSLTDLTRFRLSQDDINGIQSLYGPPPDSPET

MMP-2 [5] = biological target: T2, MMP-2 (Homo sapiens (Human), UniProt P08253); test: Enzyme inhibition studies, MMP-2; type: biochemical; conditions: slow-binding; Ki calculated from koff/kon; read-out: Ki
T2 sequence (P08253 110-660): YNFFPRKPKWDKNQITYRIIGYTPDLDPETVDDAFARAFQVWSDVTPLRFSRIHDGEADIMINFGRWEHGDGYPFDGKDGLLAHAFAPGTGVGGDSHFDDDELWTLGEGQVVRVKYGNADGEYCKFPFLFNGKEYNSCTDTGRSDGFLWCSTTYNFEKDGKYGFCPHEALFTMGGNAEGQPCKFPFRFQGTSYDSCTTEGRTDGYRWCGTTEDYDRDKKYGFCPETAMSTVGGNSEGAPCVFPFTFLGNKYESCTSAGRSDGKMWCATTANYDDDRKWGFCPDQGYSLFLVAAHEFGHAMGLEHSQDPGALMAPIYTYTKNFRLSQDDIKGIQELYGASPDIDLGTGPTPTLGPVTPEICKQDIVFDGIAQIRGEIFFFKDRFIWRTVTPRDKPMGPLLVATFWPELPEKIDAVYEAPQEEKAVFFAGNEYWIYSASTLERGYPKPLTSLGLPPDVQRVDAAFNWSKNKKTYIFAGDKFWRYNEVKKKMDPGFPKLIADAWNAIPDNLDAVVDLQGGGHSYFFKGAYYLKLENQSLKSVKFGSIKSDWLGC

MMP-2 [6] = biological target: T2, MMP-2; conditions: literature / previously reported; cited from earlier work
MMP-9 [7] = biological target: T1, MMP-9; conditions: literature / previously reported; cited from earlier work
[8] = 2 min after 5 mg/kg single iv, mice
[9] = male, CD-1, mouse, in vivo, 5 mg/kg
[10] = plasma, 5 mg/kg single iv, mice

In the case of `CC(=O)NCc1ccc(Oc2ccc(S(=O)(=O)CC3CS3)cc2)cc1` (centres unmarked) [Compound 6, N-(4-(4-((Thiiran-2-ylmethyl)sulfonyl)phenoxy)benzyl)acetamide], the solubility (physchem) is reported as 25 µg/mL (≈ 66.2 µM), the inhibition at 100 µM (ADAM9) is reported as 31% and the Inhibition (ADAM9; listed as ND-378) is reported as “Ki (ADAM-9) 31% inhibition at 100 μM”. The Ki (MMP-8) was 690 nM and 692 nM, the “stability in the buffers used in the kinetic assays” value [1] was “stable” and the inhibition at 50 µM (MMP-14) was 23%. For the same molecule, the Inhibition (MMP-14; listed as ND-378) was “Ki (MMP-14) 23% inhibition at 50 μM”, the inhibition at 100 µM (MMP-7) was 5% and the Inhibition (MMP-7; at 100 μM, listed as ND-378) was “Ki (MMP-7) 4.7% inhibition at 100 μM”. For the same molecule, the “clearance as % of hepatic blood flow” value ([2]; 5 mg/kg single iv, mice) was 35%, the “time brain levels above Ki for MMP-2” value ([2]; 5 mg/kg single iv, mice) was 30 min and the “time plasma levels above Ki for MMP-2” value ([2]; 5 mg/kg single iv, mice) was 30 min. For the same molecule, the Brain concentration [2, 8] was 5.98±1.48 pmol/mg tissue, the Plasma concentration [2, 8] was 35000 ± 7700 nM and the Brain concentration ([2]; 5 min after 5 mg/kg single iv, mice) was 4.90 ± 4.81 pmol/mg tissue. The Brain concentration ([2]; 10 min after 5 mg/kg single iv, mice) was 0.954 ± 0.473 pmol/mg tissue, the Brain concentration ([2]; 30 min after 5 mg/kg single iv, mice) was 0.231 ± 0.122 pmol/mg tissue and the Brain concentration ([2]; 60 min after 5 mg/kg single iv, mice) was 0.0544 ± 0.0539 pmol/mg tissue. The Brain concentration ([2]; 90 min after 5 mg/kg single iv, mice) was 0.0263 ± 0.0228 pmol/mg tissue, the t1/2α ([2]; brain, 5 mg/kg single iv, mice) was 2.89 min and the t1/2β ([2]; brain, 5 mg/kg single iv, mice) was 19.1 min. For the same molecule, the “crossing of the blood-brain barrier” value ([2]; in words, listed as ND-378) was “cross the blood-brain barrier; also recorded: crosses the BBB”, the concentration at 2 min [2, 9] was 35000 ± 7690 nM and the concentration at 5 min [2, 9] was 20300 ± 2800 nM. For the same molecule, the concentration at 10 min [2, 9] was 14100 ± 5000 nM, the concentration at 30 min [2, 9] was 1640 ± 480 nM and the concentration at 60 min [2, 9] was 97.9 ± 6.5 nM. The concentration at 90 min [2, 9] was 82.7 ± 26.2 nM, the concentration at 120 min [2, 9] was 29.7 ± 16.8 nM and the concentration at 240 min [2, 9] was 19.3 ± 3.7 nM. The Kp ([2]; male, CD-1, mouse, in vivo, iv, 5 mg/kg) was 0.154, the t1/2α [2, 10] was 6.31 min and the t1/2β [2, 10] was 86.6 min. The AUC0-last [3] was 66.5 pmol·min/mg, the “AUC0-∞” value [3] was 67.2 pmol·min/mg and the AUC(0-inf) (in vivo) was 7.28 µM·h. It also gave an AUC(0-t) (in vivo) of 7.25 µM·h, a Vd (in vivo) of 0.329 L/kg and a clearance (in vivo) of 30.3 mL/min/kg. For the same molecule, the inhibition at 50 µM (MMP-9 [4]) was 23%, the Inhibition (MMP-9 [4]; listed as ND-378) was “Ki (MMP-9) 23% inhibition at 50 μM” and the inhibition at 100 µM (ADAM10) was 8%. For the same molecule, the Inhibition (ADAM10; listed as ND-378) was “Ki (ADAM-10) 8% inhibition at 100 μM”, the inhibition at 100 µM (MMP-1) was 37% and the Inhibition (MMP-1; at 100 μM, listed as ND-378) was “Ki (MMP-1) 37% inhibition at 100 μM”. The inhibition at 100 µM (MMP-3) was 14%, the Inhibition (MMP-3; listed as ND-378) was “Ki (MMP-3) 14% inhibition at 100 μM” and the Ki (MMP-2 [5]) was 230 nM and 234 nM.
For “TIMP-1: tissue inhibitor of metalloproteinase 1, protein inhibitor of MMPs”, the “residence time bound to MMP-2” value (MMP-2 [6]) is given as 7 min and 6.9 min and the “residence time bound to MMP-9” value (MMP-9 [7]) is given as 8 min.
